Source: PubChem BioAssay (NCI)
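Method: 48-hour compound exposure of cells in 96-well plates, five concentrations, linear interpolation of endpoints. At the GI50, growth is halved. TGI denotes the concentration required for complete inhibition of growth.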

Experiments:
Assay in all cases: NCI tumour cell line growth inhibition, 48 h
[1] = tested on: K-562 leukemia
[2] = tested on: DU-145 prostate
[3] = tested on: MALME-3M melanoma
[4] = tested on: SK-MEL-2 melanoma
[5] = tested on: 786-0 renal
[6] = tested on: TK-10 renal
[7] = tested on: NCI-H226 lung
[8] = tested on: ACHN renal
[9] = tested on: IGROV1 ovarian
[10] = tested on: M14 melanoma
[11] = tested on: HT29 colon
[12] = tested on: PC-3 prostate
[13] = tested on: KM12 colon
[14] = tested on: HOP-92 NSCLC
[15] = tested on: SW-620 colon
[16] = tested on: BT-549 breast
[17] = tested on: NCI-H522 lung
[18] = tested on: UO-31 renal
[19] = tested on: NCI/ADR-RES ovarian
[20] = tested on: SF-268 CNS
[21] = tested on: MOLT-4 leukemia
[22] = tested on: LOX IMVI melanoma
[23] = tested on: RPMI-8226 leukemia
[24] = tested on: HL-60(TB) leukemia
[25] = tested on: SF-295 CNS
[26] = tested on: UACC-257 melanoma
[27] = tested on: RXF 393 renal
[28] = tested on: SK-OV-3 ovarian

`CCOC(=O)c1ccc(N(C=O)CCC(=O)CCl)cc1` was tested, and the GI50 [1] was 35.3 nM, the TGI [1] was > 69300 nM and the GI50 [2] was 366 nM. The TGI [2] was 13900 nM, the GI50 [3] was 1490 nM and the TGI [3] was 3480 nM. It also gave a GI50 [4] of 465 nM, a TGI [4] of 2140 nM and a GI50 [5] of 333 nM. It also gave a TGI [5] of 4080 nM, a GI50 [6] of 1780 nM and a TGI [6] of 7030 nM. It also gave a GI50 [7] of 297 nM, a TGI [7] of 1360 nM and a GI50 [8] of 432 nM. The TGI [8] was 1810 nM, the GI50 [9] was 537 nM and the TGI [9] was 8330 nM. It also gave a GI50 [10] of 55.3 nM, a TGI [10] of 1500 nM and a GI50 [11] of 186 nM. For the same compound, the TGI [11] was 1180 nM, the GI50 [12] was 401 nM and the TGI [12] was 14800 nM. It also gave a GI50 [13] of 400 nM, a TGI [13] of 15400 nM and a GI50 [14] of 64 nM. It also gave a TGI [14] of 794 nM, a GI50 [15] of 39.8 nM and a TGI [15] of 1530 nM. For the same compound, the GI50 [16] was 58.8 nM, the TGI [16] was 884 nM and the GI50 [17] was 138 nM. The TGI [17] was 617 nM, the GI50 [18] was 552 nM and the TGI [18] was 1980 nM. The GI50 [19] was 393 nM, the TGI [19] was 19400 nM and the GI50 [20] was 411 nM. It also gave a TGI [20] of 4950 nM, a GI50 [21] of 43.3 nM and a TGI [21] of 3880 nM. The GI50 [22] was 58.6 nM, the TGI [22] was 1310 nM and the GI50 [23] was 130 nM. For the same compound, the TGI [23] was 2830 nM, the GI50 [24] was 43.8 nM and the TGI [24] was 351 nM. The GI50 [25] was 1200 nM, the TGI [25] was 13000 nM and the GI50 [26] was 1500 nM. It also gave a TGI [26] of 8330 nM, a GI50 [27] of 260 nM and a TGI [27] of 4490 nM. For the same compound, the GI50 [28] was 1410 nM.
